The nature of series [1]: Re-extraction of iodine from the loaded organic solvent into aqueous sodium hydroxide solution (distribution coefficient Dréex). The format is physicochemical. From the text:
Dans un deuxième temps, on met en contact la phase organique après extraction et après élimination de la première solution aqueuse, avec une deuxième solution aqueuse de réextraction, ladite solution étant une solution aqueuse de soude, les volumes de phase organique et de solution de réextraction étant sensiblement égaux.
Différents essais ont été effectués en faisant varier la concentration en soude de la deuxième solution aqueuse. On mesure les coefficients de distribution Dréex de l'iode, qui pour la réextraction correspond au rapport de la concentration en iode dans la seconde solution aqueuse à la concentration en iode en phase organique.

Series [2] in a line: Liquid-liquid extraction of iodine from nitric acid solution into the organic solvent (distribution coefficient Dex, gamma spectrometry). The note with it: equal volumes; for coefficient de distribution Dex de l'iode: first aqueous solution HNO3 3 mol/L, 125I 1500 kBq/L, ratio organic/aqueous iodine concentration at equilibrium. The series is classed as physicochemical. The procedure:
Dans un premier temps, on met en contact, dans un tube en polypropylène étanche, une première solution aqueuse d'acide nitrique de concentration 3 mol/L contenant de l'iode ^125I, à une teneur de 1500 kBq/L avec une phase organique contenant du 1,2-NPHE. Les volumes de la solution aqueuse et de la phase organique sont égaux. L'ensemble est agité entre 10 minutes et une heure de façon douce par un dispositif approprié et ultérieurement mis dans une centrifugeuse pour une durée de 10 minutes à 4000 rpm.
On mesure le coefficient de distribution Dex de l'iode entre la première solution aqueuse et la phase organique, ce coefficient correspondant au rapport de la concentration en iode en phase organique à la concentration en iode en solution aqueuse à l'équilibre. Les concentrations en iode sont mesurées par spectrométrie gamma.

These results are taken from patent EP1455919B1, “IODINE EXTRACTION METHOD” (Commissariat à l'Énergie Atomique et aux Énergies …, priority 2001, dated 2003).

In the case of `CCCCCCc1ccccc1` [hexylbenzène], the Dréex in series [1] (soude 0,1 mol/L (10^-1 mol/L)) came to 11.6. The “coefficient de distribution Dex de l'iode” value in series [2] is listed as 2.7.

`CC(=O)CC(C)C` [4-méthyl-1,2-pentanone, reference compound]: the Dréex in series [1] (soude 0,1 mol/L (10^-1 mol/L)) was 0,012. The “coefficient de distribution Dex de l'iode” value in series [2] is on record as 9,1.

Regarding `CCCCCC` [hexane], the Dréex in series [1] (soude 0,1 mol/L (10^-1 mol/L)) was 4,2. Moreover, the “coefficient de distribution Dex de l'iode” value in series [2] is recorded as 1,5.

As for `CCCCCCCCO` [Octanol, octanol, reference compound], in series [1] (soude 0,1 mol/L (10^-1 mol/L)), the Dréex is given as 0,023. Also, the “coefficient de distribution Dex de l'iode” value in series [2] was 8,7.

With `CC(C)CCCCCCCCCCO` [Isotridécanol, isotridécanol, reference compound], in series [1] (soude 0,1 mol/L (10^-1 mol/L)), the Dréex was 0,028. Further, the “coefficient de distribution Dex de l'iode” value in series [2] is given as 5,2.

As for `CCCCCCOc1ccccc1[N+](=O)[O-]` [1,2-NPHE, 1,2-nitrophénylhexyléther], the Dréex in series [1] (soude 0,1 mol/L (10^-1 mol/L)) is 5,7; in series [1] (soude 0,5 mol/L), 6,6; in series [1] (soude 0,6 mol/L), 7,6; in series [1] (soude 1,5 mol/L) it was 6,6; in series [1] (soude 1 mol/L), 7,0; in series [1] (soude 2 mol/L, ratio aqueous/organic), 6,3. In addition, the Dréex is reported as 5,5 in series [1] (soude 5.10^-2 mol/L); 0,04 in series [1] (soude 5.10^-3 mol/L); 5,8 in series [1] (soude 10^-1 mol/L with borohydrure de sodium 10^-3 mol/L); 4,9 in series [1] (soude 10^-2 mol/L); 0,02 in series [1] (soude 10^-3 mol/L); 0 in series [1] (soude 10^-4 mol/L). In addition, the “% d'extraction” value in series [2] (corresponds to Dex of 3, HNO3 3 mol/L) is 75%. Moreover, the “coefficient de distribution Dex de l'iode” value in series [2] turned out to be 3.

Regarding `CCCCCCCCOc1ccccc1[N+](=O)[O-]` [1,2-NPOE, 1,2-nitrophényloctyléther], in series [1] (soude 0,1 mol/L (10^-1 mol/L)), the Dréex is listed as 1,7. In addition, the “coefficient de distribution Dex de l'iode” value in series [2] is 2,9.

On to `CC(C)c1cccc(C(C)C)c1` [1,3-diisopropylbenzène], for which the Dréex in series [1] (soude 0,1 mol/L (10^-1 mol/L)) is 2,3. Further, in series [2], the “coefficient de distribution Dex de l'iode” value is given as 2,3.

Turning to `CCCCOC(C)=O` [Acétate de butyle, acétate de butyle, reference compound], the Dréex in series [1] (soude 0,1 mol/L (10^-1 mol/L)) is 0,014. Besides, the “coefficient de distribution Dex de l'iode” value in series [2] is 6,6.

Turning to `CCCCCC(=O)O` [Acide Hexanoique, acide hexanoïque, reference compound], the Dréex in series [1] (soude 0,1 mol/L (10^-1 mol/L)) is given as 0,04. In series [2], the “coefficient de distribution Dex de l'iode” value is recorded as 4,1.
